pIC50: −log10 of the molar value.
Biological target: T1, HSD17B13 enzyme (Homo sapiens, UniProt Q7Z5P4)
T1 construct: His; made in house; host or cells: E. coli
T1 sequence (Q7Z5P4 20-300): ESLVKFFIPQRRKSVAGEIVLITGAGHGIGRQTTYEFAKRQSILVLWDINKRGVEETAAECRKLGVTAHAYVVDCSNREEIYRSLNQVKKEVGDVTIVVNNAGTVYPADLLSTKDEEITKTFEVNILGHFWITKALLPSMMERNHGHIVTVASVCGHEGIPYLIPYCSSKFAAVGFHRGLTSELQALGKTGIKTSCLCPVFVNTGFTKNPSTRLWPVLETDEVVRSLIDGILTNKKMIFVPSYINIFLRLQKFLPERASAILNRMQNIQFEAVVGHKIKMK
Assay: NADH detection assay (fluorescence based LTB3 assay) for HSD17B13 activity
Format: biochemical
Conditions: substrate 25 μM LTB3, 3 mM NAD+, 125 nM HSD17B13 enzyme, 1 hour at 26.5° C.
Experimental: Example A: NADH Detection Assay for Evaluation of HSD17ß13 Activity and Identification of Inhibitors
The fluorescence based Leukotriene B3 (LTB3) assay monitors the fluorescence of NADH, which is generated from NAD+ during the dehydrogenation of the substrate LTB3. The reactions were performed in a 384-well plates (Greiner; #655076) in a 20 μl reaction volume containing the following reagents (final concentrations): 25 μM LTB3 (Cayman; #20109); 3 mM NAD+ (Sigma; #N0623); 125 nM HSD17B13 enzyme (in-house; E. coli expressed His-tagged, purified, soluble protein); […] potassium phosphate buffer, pH 7.4; and 1% DMSO. Reactions were initiated by co-addition of NAD+ and enzyme, and monitored for 1 hour at 26.5° C. Generation of NADH was measured as the fluorescence signal (Excitation at 340 nm and Emission at 445 nm) at 1 hour minus the baseline fluorescence at t=0. Fluorescence signals in the absence of LTB3 (negative control values), were subtracted from all values so that the results reflected substrate-dependent production of NADH. NADH standards were included to allow the conversion of relative fluorescence units into rates of enzyme activity. Enzyme activity in the presence of test compounds was expressed as a percentage of the uninhibited enzyme activity, and plotted versus inhibitor concentration. Non-linear regression was performed using a four-parameter logistic model and GraphPad Prism software (GraphPad Software, La Jolla, CA). Ten concentrations of inhibitor were tested (in the range of 30 μM-2.5 nM), and two independent assessments were performed at each concentration.

| pIC50 | SMILES |
| --- | --- |
| ≥ 5.30 | Oc1cc(Oc2cccc(-c3cccnc3)n2)ccc1F [Example 1, 5-([2,3′-bipyridin]-6-yloxy)-2-fluorophenol] |
| 5.00 to 5.30 | Oc1cccc(-c2cccc(Oc3cccnc3)n2)c1F [Example 2, 2-fluoro-3-(6-(pyridin-3-yloxy)pyridin-2-yl) phenol] |
| 5.00 to 5.30 | Oc1cc(Oc2cccc(-c3ccc4cn[nH]c4c3)n2)ccc1F [Example 3, 5-((6-(1H-indazol-6-yl)pyridin-2-yl)oxy)-2-fluorophenol] |
| ≥ 5.30 | Oc1cccc(-c2cccc(Oc3ccc4cn[nH]c4c3)n2)c1F [Example 4, 6-((6-(2-fluoro-3-methoxyphenyl)pyridin-2-yl)oxy)-1H-indazole and 3-(6-((1H-indazol-6-yl)oxy)pyridin-2-yl)-2 fluorophenol] |
| < 4.52 | O=c1ccc(Oc2cccc(-c3cccc(O)c3F)n2)cn1C(F)F [Example 5, 1-(difluoromethyl)-5-((6-(2-fluoro-3-hydroxyphenyl)pyridin-2-yl)oxy)pyridin-2(1H)-one] |
| < 4.52 | COc1cccc(-c2cccc(Oc3ccc4c(c3)NC(=O)C4)n2)c1F [Example 6, 6-{[6-(2-fluoro-3-methoxyphenyl)pyridin-2-yl]oxy}-2,3-dihydro-1H-indol-2-one] |
| < 4.52 | O=C1Cc2ccc(Oc3cccc(-c4cccc(O)c4F)n3)cc2N1 [Example 7] |
| 5.00 to 5.30 | Oc1cc(Oc2cccc(-c3cccs3)n2)ccc1F [Example 8, 2-fluoro-5-((6-(thiophen-2-yl)pyridin-2-yl)oxy) phenol] |
| 4.52 to 5.00 | Oc1cc(Oc2cccc(-c3cc4ccccc4s3)n2)ccc1F [Example 9, 5-((6-(benzo[b]thiophen-2-yl)pyridin-2-yl)oxy)-2-fluorophenol] |
| < 4.52 | COc1cc(Oc2nccc(-c3cccc(O)c3F)n2)ccc1F [Example 10, 2-fluoro-3-[2-(4-fluoro-3-methoxyphenoxy)pyrimidin-4-yl]phenol] |
| 4.52 to 5.00 | Oc1cc(Oc2nccc(-c3cccc(O)c3F)n2)ccc1F [Example 11, 2-fluoro-3-[2-(4-fluoro-3-hydroxyphenoxy)pyrimidin-4-yl]phenol] |
| ≥ 5.30 | Oc1cc(Oc2cccc(-c3ccc(OCc4ccccc4)cc3)n2)ccc1F [Example 12, 5-((6-(4-(benzyloxy)phenyl)pyridin-2-yl)oxy)-2-fluorophenol] |
| 5.00 to 5.30 | Oc1cccc(-c2cccc(Oc3ccc(F)c(C(F)F)c3)n2)c1F [Example 13, 3-{6-[3-(difluoromethyl)-4-fluorophenoxy]pyridin-2-yl}-2-fluorophenol] |
| < 4.52 | Oc1cccc(-c2cccc(Oc3ccc(F)c(OC(F)F)c3)n2)c1F [Example 14, 3-{6-[3-(difluoromethoxy)-4-fluorophenoxy]pyridin-2-yl}-2-fluorophenol] |
| ≥ 5.30 | Oc1cc(Sc2cccc(-c3cccc(O)c3F)n2)ccc1F [Example 15, 2-fluoro-3-(6-((4-fluoro-3-hydroxyphenyl)thio)pyridin-2-yl) phenol] |
| < 4.52 | COc1cc(Oc2ccnc(-c3cccc(O)c3F)n2)ccc1F [Example 16, 2-fluoro-3-[4-(4-fluoro-3-methoxyphenoxy)pyrimidin-2-yl]phenol] |
| ≥ 5.30 | Oc1cc(Oc2ccnc(-c3cccc(O)c3F)n2)ccc1F [Example 17, 2-fluoro-3-[4-(4-fluoro-3-hydroxyphenoxy)pyrimidin-2-yl]phenol] |
| ≥ 5.30 | O=S(=O)(Nc1cccc(-c2cccc(Oc3ccc(F)c(O)c3)n2)c1)c1ccccc1 [Example 18, N-(3-(6-(4-fluoro-3-hydroxyphenoxy)pyridin-2-yl)phenyl) benzenesulfonamide] |
| 5.00 to 5.30 | CN(C)S(=O)(=O)c1cccc(-c2cccc(Oc3ccc(F)c(O)c3)n2)c1 [Example 20, 3-(6-(4-fluoro-3-hydroxyphenoxy)pyridin-2-yl)-N,N-dimethylbenzenesulfonamide] |
| 5.00 to 5.30 | CNc1nc2cc(-c3cccc(Oc4ccc(F)c(O)c4)n3)ccc2s1 [Example 21] |
| ≥ 5.30 | N#Cc1c(Oc2ccc(F)c(O)c2)cccc1-c1cccc(O)c1F [Example 22, 2′-fluoro-3-(4-fluoro-3-hydroxyphenoxy)-3′-hydroxy-[1,1′-biphenyl]-2-carbonitrile] |

| pIC50 | SMILES |
| --- | --- |
| < 4.52 | CN(c1ccc(F)c(O)c1)c1cccc(-c2cccc(O)c2F)c1C#N [Example 23] |
| ≥ 5.30 | NC(=O)c1ccc(-c2cccc(O)c2F)nc1Oc1ccc(F)c(O)c1 [Example 25, 2-(4-fluoro-3-hydroxyphenoxy)-6-(2-fluoro-3-hydroxyphenyl)pyridine-3-carboxamide] |
| ≥ 5.30 | CC(=O)Nc1nc2cc(-c3cccc(Oc4ccc(F)c(O)c4)n3)ccc2[nH]1 [Example 26, N-(5-(6-(4-fluoro-3-hydroxyphenoxy)pyridin-2-yl)-1H-benzo [d]imidazol-2-yl)acetamide] |
| ≥ 5.30 | N#Cc1cc(Oc2ccc(F)c(O)c2)nc(-c2cccc(O)c2F)c1 [Example 27, 2-(4-fluoro-3-hydroxyphenoxy)-6-(2-fluoro-3-hydroxyphenyl) pyridine-4-carbonitrile] |
| ≥ 5.30 | Oc1cc(Oc2cccc(-c3ccc(O)c(OCc4ccccc4)c3)n2)ccc1F [Example 28, 2-(benzyloxy)-4-[6-(4-fluoro-3-hydroxyphenoxy)pyridin-2-yl] phenol] |
| < 4.52 | NS(=O)(=O)Nc1cc(Oc2cccc(-c3cccc(O)c3F)n2)ccc1F [Example 30, N-(2-fluoro-5-{[6-(2-fluoro-3-hydroxyphenyl)pyridin-2-yl]oxy}phenyl)aminosulfonamide] |
| ≥ 5.30 | O=S1(=O)CCN(c2ccc(-c3cccc(Oc4ccc(F)c(O)c4)n3)cc2)CC1 [Example 31, 4-(4-(6-(4-fluoro-3-hydroxyphenoxy)pyridin-2-yl)phenyl)thiomorpholine 1,1-dioxide] |
| 5.00 to 5.30 | Nc1nc2cc(-c3cccc(Oc4ccc(F)c(O)c4)n3)ccc2o1 [Example 32, 5-{[6-(2-amino-1,3-benzoxazol-5-yl)pyridin-2-yl]oxy}-2-fluorophenol] |
| ≥ 5.30 | CN1CCOc2cc(-c3cccc(Oc4ccc(F)c(O)c4)n3)ccc21 [Example 33, 2-fluoro-5-((6-(4-methyl-3,4-dihydro-2H-benzo[b][1,4]oxazin-7-yl)pyridin-2-yl)oxy)phenol] |
| < 4.52 | Oc1cc(Oc2cccc(-c3ccc(OCc4ccccc4)c(F)c3)n2)ccc1F [Example 34, 5-({6-[4-(benzyloxy)-3-fluorophenyl]pyridin-2-yl}oxy)-2-fluorophenol] |
| < 4.52 | COc1ccc(Oc2cccc(-c3cccc(O)c3F)n2)cc1C(=O)O [Example 35, 5-((6-(2-fluoro-3-hydroxyphenyl)pyridin-2-yl)oxy)-2-methoxybenzoic acid] |
| ≥ 5.30 | Oc1cccc(Oc2cccc(-c3cccc(O)c3F)n2)c1F [Example 36, 2-fluoro-3-(6-(2-fluoro-3-hydroxyphenoxy)pyridin-2-yl)phenol] |
| ≥ 5.30 | Oc1ccc(Oc2cccc(-c3cccc(O)c3F)n2)cc1F [Example 37, 2-fluoro-3-[6-(3-fluoro-4-hydroxyphenoxy)pyridin-2-yl] phenol] |
| < 4.52 | Oc1cc(Oc2cccc(-c3cccc(F)c3O)n2)ccc1F [Example 38, 2-fluoro-5-((6-(3-fluoro-2-hydroxyphenyl)pyridin-2-yl)oxy)phenol] |
| ≥ 5.30 | Oc1cc(Oc2cccc(-c3ccc(O)c(F)c3)n2)ccc1F [Example 39, 2-fluoro-4-(6-(4-fluoro-3-hydroxyphenoxy)pyridin-2-yl)phenol] |
| ≥ 5.30 | Oc1cc(Oc2cccc(-c3ccc(F)c(O)c3)n2)ccc1F [Example 40, 2-fluoro-5-(6-(4-fluoro-3-hydroxyphenoxy)pyridin-2-yl)phenol] |
| 5.00 to 5.30 | O=c1[nH]c2ccc(Oc3cccc(-c4cccc(O)c4F)n3)cc2[nH]1 [Example 41, 5-((6-(2-fluoro-3-hydroxyphenyl)pyridin-2-yl)oxy)-1,3-dihydro-2H-benzo[d]imidazol-2-one] |
| < 4.52 | CC(=O)N1CCN(S(=O)(=O)c2cccc(-c3cccc(Oc4ccc(F)c(O)c4)n3)c2)CC1 [Example 42, 1-(4-{3-[6-(4-fluoro-3-hydroxyphenoxy)pyridin-2-yl]benzenesulfonyl}piperazin-1-yl)ethan-1-one] |
| 5.00 to 5.30 | CN1CCN(S(=O)(=O)c2cccc(-c3cccc(Oc4ccc(F)c(O)c4)n3)c2)CC1 [Example 43, 2-fluoro-5-((6-(3-((4-methylpiperazin-1-yl)sulfonyl)phenyl)pyridin-2-yl)oxy)phenol] |
| ≥ 5.30 | O=S(=O)(c1cccc(-c2cccc(Oc3ccc(F)c(O)c3)n2)c1)N1CCOCC1 [Example 44, 2-fluoro-5-((6-(3-(morpholinosulfonyl)phenyl)pyridin-2-yl)oxy)phenol] |

— patent US12643858B2 (Inipharm, Inc., priority 2020, dated 2026)
